# Results reported in patent publication US8952024B2, “Herbicidal pyrimidone derivatives” (E I du Pont de Nemours and Company, priority 2009, dated 2015).
# Legend:
# Type in all cases: in vivo
# [1] = test system: Italian ryegrass (Lolium multiflorum); assay: Test B pre-/postemergence plant response; conditions: for Ryegrass, Italian plant response rating (0 to 100 scale): 62 g ai/ha, 0 is no effect, 13 to 15 days
# Summary of the method: (§1)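 Compound in solvent + surfactant applied pre-em (loam/sand) or post-em (plants 2–18 cm, peat medium); greenhouse hold 13–15 days; visual 0–100 control score.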
# [2] = test system: Surinam grass (Brachiaria decumbens); assay: Test B pre-/postemergence plant response; conditions: for Surinam Grass plant response rating (0 to 100 scale): 62 g ai/ha, 0 is no effect, 13 to 15 days
# Summary of the method: as §1
# [3] = test system: bermudagrass (Cynodon dactylon); assay: Test B pre-/postemergence plant response; conditions: for Bermudagrass plant response rating (0 to 100 scale): 62 g ai/ha, 0 is no effect, 13 to 15 days
# Summary of the method: as §1
# [4] = test system: blackgrass (Alopecurus myosuroides); assay: Test B pre-/postemergence plant response; conditions: for Blackgrass plant response rating (0 to 100 scale): 62 g ai/ha, 0 is no effect, 13 to 15 days
# Summary of the method: as §1
# [5] = test system: cocklebur (Xanthium strumarium); assay: Test B pre-/postemergence plant response; conditions: for Cocklebur plant response rating (0 to 100 scale): 62 g ai/ha, 0 is no effect, 13 to 15 days
# Summary of the method: as §1
# corn (Zea mays) = assay: Test B pre-/postemergence plant response; conditions: for Corn plant response rating (0 to 100 scale): 62 g ai/ha, 0 is no effect, 13 to 15 days
# Summary of the method: as §1
# [6] = test system: morningglory (Ipomoea coccinea); assay: Test B pre-/postemergence plant response; conditions: for Morningglory plant response rating (0 to 100 scale): 62 g ai/ha, 0 is no effect, 13 to 15 days
# Summary of the method: as §1
# [7] = test system: ragweed (common ragweed, Ambrosia elatior); assay: Test B pre-/postemergence plant response; conditions: for Ragweed plant response rating (0 to 100 scale): 62 g ai/ha, 0 is no effect, 13 to 15 days
# Summary of the method: as §1
# soybean (Glycine max) = assay: Test B pre-/postemergence plant response; conditions: for Soybean plant response rating (0 to 100 scale): 62 g ai/ha, 0 is no effect, 13 to 15 days
# Summary of the method: as §1
# [8] = test system: barnyardgrass (Echinochloa crus-galli); assay: Test B flooded paddy test; conditions: for Plant response rating, Flood, Barnyardgrass: 250 g ai/ha, flooded paddy test, visual rating on 0 to 100 scale (0 no effect, 100 complete control) after 13 to 15 days; for Plant response rating, Barnyardgrass: Flood (flooded paddy test), 13 to 15 days; for Barnyardgrass plant response rating: Flood, 31 g ai/ha, scale 0 to 100 (0 no effect, 100 complete control)
# Summary of the method: (§2)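 Each compound is added to standing floodwater (3 cm above soil, maintained) in pots of 2-leaf-stage plants; greenhouse exposure lasts 13–15 d before visual comparison with controls on a 0–100 control scale.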
# [9] = test system: ducksalad (Heteranthera limosa); assay: Test B flooded paddy test; conditions: for Plant response rating, Flood, Ducksalad: 250 g ai/ha, flooded paddy test, visual rating on 0 to 100 scale (0 no effect, 100 complete control) after 13 to 15 days; for Plant response rating, Ducksalad: Flood (flooded paddy test), 13 to 15 days; for Ducksalad plant response rating: Flood, 31 g ai/ha, scale 0 to 100 (0 no effect, 100 complete control)
# Summary of the method: as §2
# rice (Oryza sativa) = assay: Test B flooded paddy test; conditions: for Plant response rating, Flood, Rice: 250 g ai/ha, flooded paddy test, visual rating on 0 to 100 scale (0 no effect, 100 complete control) after 13 to 15 days; for Plant response rating, Rice: Flood (flooded paddy test), 13 to 15 days; for Rice plant response rating: Flood, 31 g ai/ha, scale 0 to 100 (0 no effect, 100 complete control)
# Summary of the method: as §2
# [10] = test system: umbrella sedge (Cyperus difformis); assay: Test B flooded paddy test; conditions: for Plant response rating, Flood, Sedge, Umbrella: 250 g ai/ha, flooded paddy test, visual rating on 0 to 100 scale (0 no effect, 100 complete control) after 13 to 15 days; for Plant response rating, Sedge, Umbrella: Flood (flooded paddy test), 13 to 15 days; for Sedge, Umbrella plant response rating: Flood, 31 g ai/ha, scale 0 to 100 (0 no effect, 100 complete control)
# Summary of the method: as §2
# [11] = 31 g ai/ha, postemergence, scale 0 to 100, 0 is no effect, 100 is complete control
# [12] = postemergence, 100 is complete control
# [13] = Postemergence, 250 g ai/ha, scale 0 to 100 (0 no effect, 100 complete control)
# [14] = Postemergence, 125 g ai/ha, visual rating after 13 to 15 days, scale 0 (no effect) to 100 (complete control)
# [15] = 62 g ai/ha, scale of 0 to 100 where 0 is no effect and 100 is complete control
# [16] = 125 g ai/ha, scale 0 to 100, 0 is no effect, 100 is complete control
smiles,measurement,setting,value
CC(C)CC(=O)OC1=C(C(=O)c2cnc(-c3ccccc3)n(-c3ccccc3)c2=O)C(=O)CCC1 [Compound 83],"Plant response rating, Ryegrass, Italian",[1]; [11],0
same,"Ryegrass, Italian plant response rating (0 to 100 scale)",[1]; [12],0
same,"Plant response rating, Ryegrass, Italian",[1]; [13],5
same,"Plant response rating, Surinam Grass",[2]; [11],75
same,Surinam Grass plant response rating (0 to 100 scale),[2]; [12],75
same,"Plant response rating, Surinam Grass",[2]; [13],90
same,"Plant response rating, Bermudagrass",[3]; [11],75
same,Bermudagrass plant response rating (0 to 100 scale),[3]; [12],75
same,"Plant response rating, Bermudagrass",[3]; [14],85
same,"Plant response rating, Bermudagrass",[3]; [13],90
same,"Plant response rating, Blackgrass",[4]; [11],0
same,Blackgrass plant response rating (0 to 100 scale),[4]; [12],0
same,"Plant response rating, Blackgrass",[4]; [14],0
same,"Plant response rating, Blackgrass",[4]; [13],0
same,"Plant response rating, Cocklebur",[5]; [11],75
same,Cocklebur plant response rating (0 to 100 scale),[5]; [12],80
same,"Plant response rating, Cocklebur",[5]; [14],80
same,"Plant response rating, Cocklebur",[5]; [13],90
same,"Plant response rating, Corn",corn (Zea mays); [11],0
same,Corn plant response rating (0 to 100 scale),corn (Zea mays); [12],5
same,"Plant response rating, Corn",corn (Zea mays); [14],15
same,"Plant response rating, Corn",corn (Zea mays); [13],25
same,"Plant response rating, Morningglory",[6]; [11],70
same,Morningglory plant response rating (0 to 100 scale),[6]; [12],75
same,"Plant response rating, Morningglory",[6]; [13],100
same,"Plant response rating, Ragweed",[7]; [11],75
same,Ragweed plant response rating (0 to 100 scale),[7]; [12],80
same,"Plant response rating, Ragweed",[7]; [13],98
same,"Plant response rating, Soybean",soybean (Glycine max); [11],75
same,Soybean plant response rating (0 to 100 scale),soybean (Glycine max); [12],90
same,"Plant response rating, Soybean",soybean (Glycine max); [13],95
same,"Plant response rating, Flood, Barnyardgrass",[8],40
same,"Plant response rating, Barnyardgrass",[8]; [15],0
same,"Plant response rating, Barnyardgrass",[8]; [16],15
same,Barnyardgrass plant response rating,[8],0
same,"Plant response rating, Flood, Ducksalad",[9],50
same,"Plant response rating, Ducksalad",[9]; [15],30
same,"Plant response rating, Ducksalad",[9]; [16],40
same,Ducksalad plant response rating,[9],20
same,"Plant response rating, Flood, Rice",rice (Oryza sativa),30
same,"Plant response rating, Rice",rice (Oryza sativa); [15],0
same,"Plant response rating, Rice",rice (Oryza sativa); [16],0
same,Rice plant response rating,rice (Oryza sativa),0
same,"Plant response rating, Flood, Sedge, Umbrella",[10],50
same,"Plant response rating, Sedge, Umbrella",[10]; [15],30
same,"Plant response rating, Sedge, Umbrella",[10]; [16],40
same,"Sedge, Umbrella plant response rating",[10],0
COCCn1c(-c2ccccc2)ncc(C(=O)C2=C(O)CCCC2=O)c1=O [Compound 85],"Plant response rating, Ryegrass, Italian",[1]; [11],0
same,"Ryegrass, Italian plant response rating (0 to 100 scale)",[1]; [12],10
same,"Plant response rating, Ryegrass, Italian",[1]; [13],45
same,"Plant response rating, Surinam Grass",[2]; [11],75
same,Surinam Grass plant response rating (0 to 100 scale),[2]; [12],85
same,"Plant response rating, Surinam Grass",[2]; [13],85
same,"Plant response rating, Bermudagrass",[3]; [11],85
same,Bermudagrass plant response rating (0 to 100 scale),[3]; [12],85
same,"Plant response rating, Bermudagrass",[3]; [14],90
same,"Plant response rating, Bermudagrass",[3]; [13],90
same,"Plant response rating, Blackgrass",[4]; [11],5
same,Blackgrass plant response rating (0 to 100 scale),[4]; [12],35
same,"Plant response rating, Blackgrass",[4]; [14],35
same,"Plant response rating, Blackgrass",[4]; [13],50
same,"Plant response rating, Cocklebur",[5]; [11],95
same,Cocklebur plant response rating (0 to 100 scale),[5]; [12],95
same,"Plant response rating, Cocklebur",[5]; [14],98
same,"Plant response rating, Cocklebur",[5]; [13],98
same,"Plant response rating, Corn",corn (Zea mays); [11],50
same,Corn plant response rating (0 to 100 scale),corn (Zea mays); [12],70
same,"Plant response rating, Corn",corn (Zea mays); [14],85
same,"Plant response rating, Corn",corn (Zea mays); [13],85
same,"Plant response rating, Morningglory",[6]; [11],95
same,Morningglory plant response rating (0 to 100 scale),[6]; [12],100
same,"Plant response rating, Morningglory",[6]; [13],100
same,"Plant response rating, Ragweed",[7]; [11],80
same,Ragweed plant response rating (0 to 100 scale),[7]; [12],85
same,"Plant response rating, Ragweed",[7]; [13],98
same,"Plant response rating, Soybean",soybean (Glycine max); [11],80
same,Soybean plant response rating (0 to 100 scale),soybean (Glycine max); [12],85
same,"Plant response rating, Soybean",soybean (Glycine max); [13],95
same,"Plant response rating, Flood, Barnyardgrass",[8],65
same,"Plant response rating, Barnyardgrass",[8]; [15],25
same,"Plant response rating, Barnyardgrass",[8]; [16],55
same,Barnyardgrass plant response rating,[8],25
same,"Plant response rating, Flood, Ducksalad",[9],65
same,"Plant response rating, Ducksalad",[9]; [15],50
same,"Plant response rating, Ducksalad",[9]; [16],60
same,Ducksalad plant response rating,[9],40
same,"Plant response rating, Flood, Rice",rice (Oryza sativa),20
same,"Plant response rating, Rice",rice (Oryza sativa); [15],0
same,"Plant response rating, Rice",rice (Oryza sativa); [16],15
same,Rice plant response rating,rice (Oryza sativa),0
same,"Plant response rating, Flood, Sedge, Umbrella",[10],80
same,"Plant response rating, Sedge, Umbrella",[10]; [15],75
same,"Plant response rating, Sedge, Umbrella",[10]; [16],80
same,"Sedge, Umbrella plant response rating",[10],50
